Earlier results in patent US20200367500A1, “MICROCAPSULES WITH BIOCIDES FOR THEIR INCORPORATION INTO REPELLENT AND/OR INSECTICIDE COATINGS” (priority 2019, published 2020).
“Also recorded” adds a separate entry of the source. Like-named read-outs stand apart in the source and are kept apart here.

Details: for Decomposition time (Mean life): aqueous medium; for Stability in aqueous medium, in words: pH as stated in the value

| Compound | Decomposition time (Mean life) (pH 9) | Stability in aqueous medium, in words | also measured |
| --- | --- | --- | --- |
| C=CCC1=C(C)C(OC(=O)C2C(C=C(C)C)C2(C)C)CC1=O [D-allethrin] | (4.3 days) | Stable at pH 5 after 31 days | Decomposition time (Mean life) (pH 7): 500 days |
| CC1(C)C(C=C(Cl)Cl)C1C(=O)OC(C#N)c1cccc(Oc2ccccc2)c1 (centres unmarked) [Cypermethrin] | 7 days | – | – |
| O=C(NC(=O)c1c(F)cccc1F)Nc1ccc(Cl)cc1 [Diflubenzuron] | – | Stable in a pH range from 5 to 7; also recorded: Hydrolyzed at pH 9 | – |
| CC1(C)C(C=C(Cl)Cl)C1C(=O)OCc1cccc(Oc2ccccc2)c1 (centres unmarked) [Permethrin] | – | Stable at pH between 5 and 6. | – |
| CC(COc1ccc(Oc2ccccc2)cc1)Oc1ccccn1 (centres unmarked) [Pyriproxifen] | – | Stable in pH between 4 and 9. | – |
| CCOP(=S)(OCC)Oc1nc(Cl)c(Cl)cc1Cl [Chlorpyrifos] | – | Stable in neutral and slightly | Decomposition time (Mean life) (pH 10): 7 days |
| CCOP(=S)(OCC)Oc1cc(C)nc(C(C)C)n1 [Diazinon] | 136 days | – | Decomposition time (Mean life) (pH 5): 31 days; Decomposition time (Mean life) (pH 7.5): 185 days |
| CC1(C)[C@H](C(=O)O[C@H](C#N)c2cccc(Oc3ccccc3)c2)[C@@H]1C=C(Br)Br [Deltamethrin] | – | more stable in medium acid solutions | Decomposition time (Mean life) (pH 7): 0.33 days |
| CCOC(=O)CC(SP(=S)(OC)OC)C(=O)OCC (centres unmarked) [Malathion] | – | Quickly hydrolyzed at pH over 7. The optimal pH | – |
| CCN(CC)c1nc(C)cc(OP(=S)(OC)OC)n1 [Pirimiphos-methyl] | – | – | Decomposition time (Mean life) (pH 5): 7 days; Decomposition time (Mean life) (pH 8): 5 days |
